Source: patent US4539152A, “4-Substituted-2-oxoazetidine compounds” (Fujisawa Pharmaceutical Co., Ltd., priority 1980, dated 1985)

Key:
[1] = test system: Pseudomonas aeruginosa NCTC-10490; assay: antimicrobial activity, minimal inhibitory concentration (agar streak); format: cell-based; conditions: NCTC10490, heart infusion agar, 37° C., 20 hours, overnight culture 10^8 viable cells per ml
Protocol: (§1) One loopful of an overnight culture of each test strain in Trypticase-soy broth (10^8 viable cells per ml.) was streaked on heart infusion agar (HI-agar) containing graded concentrations of antibiotics, and the minimal inhibitory concentration (MIC) was expressed in terms of μg/ml after incubation at 37° C. for 20 hours.

Staphylococcus aureus 6 = assay: as above; format: cell-based; conditions: heart infusion agar, 37° C., 20 hours, overnight culture 10^8 viable cells per ml
Protocol: as §1

SMILES: CC(C)(O)[C@@H]1C(=O)N2C(C(=O)[O-])=C(SCCN)C[C@H]12.[K+] [potassium (5R,6R)-3-(2-aminoethylthio)-6-(1-hydroxy-1-methylethyl)-7-oxo-1-azabicyclo[3.2.0]hept-2-ene-2-carboxylate]
- MIC [1]: 12.5 µg/mL
- MIC (Staphylococcus aureus 6): 1.56 µg/mL
